Here are results for 15 molecules from ChEMBL document CHEMBL1123862, “Binding orientation of amphetamine and norfenfluramine analogues in the benzonorbornene and benzobicyclo[3.2.1]octane ring systems at the active site of phenylethanolamine N-methyltransferase (PNMT)” (J Med Chem, 1987).

Series [1] deals with T1, Phenylethanolamine N-methyltransferase (Bos taurus, UniProt P10938).
T1 sequence (P10938 whole entry): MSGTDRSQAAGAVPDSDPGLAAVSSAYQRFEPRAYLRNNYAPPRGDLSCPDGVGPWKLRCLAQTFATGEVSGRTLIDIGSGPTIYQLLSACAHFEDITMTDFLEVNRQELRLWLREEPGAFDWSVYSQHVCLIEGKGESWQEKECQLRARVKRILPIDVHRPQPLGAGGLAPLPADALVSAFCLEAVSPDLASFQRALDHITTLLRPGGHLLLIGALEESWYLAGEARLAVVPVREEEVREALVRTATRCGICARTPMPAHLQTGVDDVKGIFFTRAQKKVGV
Kind of series: (§1) Inhibition of Phenylethylamine N-Methyltransferase (PNMT) using radiochemical assay.

Compound in series [2]: N[C@@H]1CC2CC1c1cccc(C(F)(F)F)c12
The description is as §1.

Compound in series [3]: N[C@@H]1CC2CC1c1ccc(C(F)(F)F)cc12
The series is described as §1.

Compound in series [4]: NC1C2CC[C@H]1c1ccccc12
Described as §1.

Compound in series [5]: N[C@@H]1C2CCC1c1ccc(C(F)(F)F)cc1C2
Described as §1.

Compound in series [6]: N[C@@H]1CC2C[C@@H]1c1ccccc12
The description is as §1.

Compound in series [7]: N[C@H]1C2CCC1c1cc(C(F)(F)F)ccc12
The description is as §1.

Compound in series [8]: N[C@@H]1C2CCC1c1cccc(C(F)(F)F)c1C2
The series is described as §1.

With `NC1C2CC[C@H]1c1ccccc12` (some centres not stated), the Ki (in general, the equilibrium dissociation constant of an inhibitor or competing ligand from its target) in series [1] was 258 µM.
`N[C@H]1C2CCC1c1cc(C(F)(F)F)ccc1C2` (some centres not stated): the inhibitory constant (Ki) in series [1] stood at 801 µM.
The same measure, in the same setting: next, `N[C@@H]1C2CCC1c1ccccc1C2` (some centres not stated): 106 µM.
Still for that read-out and setting: next, `N[C@@H]1C2CCC1c1cc(C(F)(F)F)ccc1C2` (some centres not stated): 31.8 µM; `N[C@@H]1CC2CC1c1cc(C(F)(F)F)ccc12` (some centres not stated): 204 µM.
On the same count and under the same terms, the figure for `N[C@@H]1CC2CCC1c1ccccc12` (some centres not stated) is 1300 µM.
In series [1], `N[C@H]1C2CCC1c1ccc(C(F)(F)F)cc1C2` (some centres not stated) came in with a Ki of 1800 µM.
Take `N[C@H]1C2CCC1c1c2cccc1C(F)(F)F` (some centres not stated): the Ki in series [1] is 12.1 µM.
Turning to `N[C@H]1C2CCC1c1ccccc1C2` (some centres not stated), the Ki in series [1] is 8900 µM.
`NC1CCc2ccccc2C1` (configuration not stated) had a Ki in series [1] of 15 µM.
Consider `N[C@H]1C2CCC1c1cccc(C(F)(F)F)c1C2` (some centres not stated), for which the Ki in series [1] stood at 1430 µM.
In series [1], `N[C@@H]1CC2CC1c1c2cccc1C(F)(F)F` (some centres not stated) yielded a Ki of 350 µM.
In series [1], `N[C@@H]1C2CCC1c1c(cccc1C(F)(F)F)C2` (some centres not stated) yielded a Ki of 51.1 µM.
In the case of `N[C@H]1C2CCC1c1c(cccc1C(F)(F)F)C2` (some centres not stated), the affinity in series [1], expressed as Ki, was 191 µM.

B1: Phenylethanolamine N-methyltransferase (Bos taurus), P10938 (protein)
chain: T1 sequence (P10938 whole entry)
Consider B1, for which the Km (commonly the concentration of substrate that gives half-maximal velocity) in series [2] was 33 µM; in series [3], 52 µM; in series [4] it was 151 µM; in series [5] it was 45.8 µM; in series [7] it was 14.6 µM; in series [8] it was 34.4 µM. The Vmax – broadly, the rate approached at saturating substrate – in series [2] was 0.49 nmol/min/mg; in series [3], 1.38 nmol/min/mg; in series [4], 0.17 nmol/min/mg; in series [5] it was 0.46 nmol/min/mg; in series [6] it was 0.04 nmol/min/mg; in series [7], 0.57 nmol/min/mg. Also, the Vmax in series [8] came out at 0.52 nmol/min/mg.
